The numbers were not newly measured in US20160270390A1, “POLYMERIC FILM FOR AG[…] STORAGE, […] THEREFROM AND RELATED METHODS OF AG[…] STORAGE” (priority 2012, published 2016), which cites them from elsewhere.

For this series, the system named is insect pests. The settings on record: Zimbabwe, grain damage of 92% reported due to insect pests.

As to `CCOC(=O)CC(SP(=S)(OC)OC)C(=O)OCC` (stereo not shown) [malthion], the “reduction of grain damage in stored maize” value is reported as 10%.
